# Measured values: patent publication US8288428B2, “Compounds as cannabinoid receptor ligands” (Abbott Laboratories, priority 2009, dated 2012)
# Like-named read-outs stand apart in the source and are kept apart here.
# Key:
# [1] = test system: apolipoprotein E knockout mice; settings: cited from earlier work
# [2] = test system: rodent models of pain; settings: rodent models of neuropathic, incisional, chronic and acute inflammatory pain; cited from earlier work
# [3] = test system: microglial activation; settings: in vitro; cited from earlier work
# [4] = test system: osteoclast activity; settings: cited from earlier work
# [5] = test system: ovariectomy-induced bone loss; settings: mice, model for post-menopausal osteoporosis; cited from earlier work
# [6] = test system: animal models of pain; settings: animal models of acute thermal, persistent, inflammatory and neuropathic pain; cited from earlier work
# [7] = molecular target: T1, human CB2 receptors (Homo sapiens, UniProt P34972); experiment: human CB2 radioligand binding assay
# T1 construct: expressed in transfected cells; membrane preparation
# Method: (§1) (i) In Vitro Methods—CB2 and CB1 Radioligand Binding Assays:
# (§2) The CB1 and CB2 radioligand binding assays described herein are utilized to ascertain the selectivity of compounds of the present application for binding to CB2 relative to CB1 receptors.
# (§3) HEK293 cells stably expressing human CB2 receptors were grown until a confluent monolayer was formed. Briefly, the cells were harvested and homogenized in TE buffer (50 mM Tris-HCl, 1 mM MgCl2, and 1 mM EDTA) using a polytron for 2×10 second bursts in the presence of protease inhibitors, followed by centrifugation at 45,000×g for 20 minutes. The final membrane pellet was re-homogenized in storage buffer (50 mM Tris-HCl, 1 mM MgCl2, and 1 mM EDTA and 10% sucrose) and frozen at −78° C. until used. Saturation binding reactions were initiated by the addition of membrane preparation (protein concentration of 5 μg/well for human CB2) into wells of a deep well plate containing [^3H]CP-55,940 (120 Ci/mmol, a nonselective CB agonist commercially available from Tocris) in assay buffer (50 mM Tris, 2.5 mM EDTA, 5 mM MgCl2, and 0.5 mg/mL fatty acid free BSA, pH 7.4). After 90 min incubation at 30° C., binding reaction was terminated by the addition of 300 μL/well of cold assay buffer followed by rapid vacuum filtration through a UniFilter-96 GF/C filter plates (pre-soaked in 1 mg/mL BSA for 2 hours). The bound activity was counted in a TopCount using Microscint-20. Saturation experiments were conducted with twelve concentrations of [^3H]CP-55,940 ranging from 0.01 to 8 nM. Competition experiments were conducted with 0.5 nM [^3H]CP-55,940 and five concentrations (0.01 nM to 10 μM) of displacing ligands. The addition of 10 μM unlabeled CP-55,940 (Tocris, Ellisville, Mo.) was used to assess nonspecific binding.
# [8] = molecular target: T2, rat CB2 receptors (Rattus norvegicus, UniProt Q9QZN9); experiment: rat CB2 radioligand binding assay
# T2 construct: expressed in transfected cells; membrane preparation
# T2 sequence (Q9QZN9 1-360): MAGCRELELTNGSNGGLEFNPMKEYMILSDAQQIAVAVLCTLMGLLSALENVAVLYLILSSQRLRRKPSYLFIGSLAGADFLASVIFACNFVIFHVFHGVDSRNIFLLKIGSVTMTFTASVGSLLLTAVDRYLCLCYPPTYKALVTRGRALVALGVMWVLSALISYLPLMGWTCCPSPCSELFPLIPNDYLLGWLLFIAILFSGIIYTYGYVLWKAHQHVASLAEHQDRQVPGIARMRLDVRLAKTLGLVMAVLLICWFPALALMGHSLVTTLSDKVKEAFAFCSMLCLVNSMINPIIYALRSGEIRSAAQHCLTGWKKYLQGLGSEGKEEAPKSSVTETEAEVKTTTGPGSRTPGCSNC
# Method: as §1, §2
# as §3, with “expressing rat” for “expressing human”, “of 20” for “of 5”, “for rat” for “for human”, “After 45” for “After 90”, “concentrations of displacing ligands selected from the range of 0.01” for “concentrations (0.01”, “10 μM.” for “10 μM) of displacing ligands.”
# [9] = test system: rat formalin model of persistent pain; settings: cited from earlier work
# [10] = competition with 0.5 nM [3H]CP-55,940, HEK293 membranes expressing human CB2, read-out: human CB2 binding (Ki)
# T1 sequence (P34972 whole entry): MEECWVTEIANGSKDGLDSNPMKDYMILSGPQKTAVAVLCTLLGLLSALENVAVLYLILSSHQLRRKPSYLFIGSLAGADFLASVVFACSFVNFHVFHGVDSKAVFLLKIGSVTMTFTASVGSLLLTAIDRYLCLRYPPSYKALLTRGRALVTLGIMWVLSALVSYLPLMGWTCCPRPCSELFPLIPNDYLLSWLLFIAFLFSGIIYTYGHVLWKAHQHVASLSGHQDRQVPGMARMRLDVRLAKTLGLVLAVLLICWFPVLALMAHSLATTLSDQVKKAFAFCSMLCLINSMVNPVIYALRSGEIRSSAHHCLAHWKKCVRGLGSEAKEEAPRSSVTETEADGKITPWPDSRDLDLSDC
compound,measurement,setting,value
(−)-Δ^9-Tetrahydrocannabinol [THC],progression of atherosclerotic lesions,[1]; low doses,slowed the progression
COc1ccc2c(c1)c(CCN1CCOCC1)c(C)n2C(=O)c1cccc(Cl)c1Cl [GW405833],efficacy in pain models,[2],efficacious
CCCC(C)(C)c1ccc2c(c1)OC(C)(C)[C@@H]1CC=C(C)C[C@@H]21 [JWH-133],effect on β-amyloid-induced microglial activation and neurotoxicity,[3],abrogated
SR144528,effect on osteoclast activity,[4],inhibit
same,inhibition of THC effects on atherosclerotic lesions,[1],inhibited
same,blockade of JWH-133 effects on β-amyloid-induced microglial activation and neurotoxicity,[3],blocked
same,effect on ovariectomy-induced bone loss,[5],reverse
CN1CCCCC1Cn1cc(C(=O)c2cc([N+](=O)[O-])ccc2I)c2ccccc21 (stereo not shown) [AM-1241],analgesic efficacy,[6],robust analgesic efficacy
"CCCCn1/c(=N/C(=O)c2cc(C(F)(F)F)ccc2CC(=O)OC(C)(C)C)cc(C(C)(C)C)n1C [Example 23, tert-butyl[2-({[(3E)-2-butyl-5-tert-butyl-1-methyl-1,2-dihydro-3H-pyrazol-3-ylidene]amino}carbonyl)-4-(trifluoromethyl)phenyl]acetate]",Ki,[7]; [10],269 nM
same,Ki,[8],80.2 nM
"CCCCn1nc(C(C)(C)C)s/c1=N\C(=O)c1cc(C(F)(F)F)ccc1CN1CC(C(C)(C)O)C1 [Example 22, N-[(2Z)-3-butyl-5-tert-butyl-1,3,4-thiadiazol-2(3H)-ylidene]-2-{[3-(1-hydroxy-1-methylethyl)azetidin-1-yl]methyl}-5-(trifluoromethyl)benzamide]",Ki,[7],5.33 nM
same,Ki,[8],2.14 nM
"CCCCn1nc(C(C)(C)C)s/c1=N\C(=O)c1cc(C(F)(F)F)ccc1CN1CC(C)(O)C1 [Example 17, N-[(2Z)-3-butyl-5-tert-butyl-1,3,4-thiadiazol-2(3H)-ylidene]-2-[(3-hydroxy-3-methylazetidin-1-yl)methyl]-5-(trifluoromethyl)benzamide]",Ki,[7],5.9 nM
same,Ki,[8],1.45 nM
CCCCCCC(C)(C)c1cc(OC)c([C@@H]2C=C(CO)[C@@H]3C[C@H]2C3(C)C)c(OC)c1 [HU-308],antinociceptive response,[9],elicits an antinociceptive response
"Cn1c(C(C)(C)C)c/c(=N\C(=O)c2cc(C(F)(F)F)ccc2CN2CC(O)C2)n1CC1CC1 [Example 9, N-[(3E)-5-tert-butyl-2-(cyclopropylmethyl)-1-methyl-1,2-dihydro-3H-pyrazol-3-ylidene]-2-[(3-hydroxyazetidin-1-yl)methyl]-5-(trifluoromethyl)benzamide]",Ki,[7],30.1 nM
same,Ki,[8],24.8 nM
"COCCCn1/c(=N/C(=O)c2cc(C(F)(F)F)ccc2/C=C/C(C)(C)O)cc(C(C)(C)C)n1C [Example 14, N-[(3E)-5-tert-butyl-2-(3-methoxypropyl)-1-methyl-1,2-dihydro-3H-pyrazol-3-ylidene]-2-[(1E)-3-hydroxy-3-methylbut-1-enyl]-5-(trifluoromethyl)benzamide]",Ki,[7]; [10],111 nM
same,Ki,[8],30.6 nM
